Source: patent publication US12599560B2, “Lipids and lipid nanoparticle formulations” (Longuide Biopharma Corporation, priority 2023, dated 2026)

What was measured:
[1] = tested on: A549 cells; experiment: Cell transfection assay (D-Luciferin), A549; format: cell-based
Procedure: (§1) A549 cells were digested and collected the day before treatment and the cell concentration was adjusted to 2*10^5 cells/mL, 200 μL cell culture medium with a concentration of 2*10^5 cells/mL was added to the 96-well plate, resulting in approximately 4*10^4 cells per well in the 96-well plate. Digested and collected DC2.4 cells and adjusted the cell concentration to 1*10^5 cells/mL, added 200 μL cell culture medium with a concentration of 1*10^5 cells/mL to the 96-well plate, so that the number of cells per well in the 96-well plate is approximately 2*10^4. The cells were incubated in a cell culture incubator (Esco Micro Pte Ltd, Singapore, CLM-170B-8-NF) at 37° C. 5% CO2 for 24 h.
(§2) On the day of cell treatment, the medium (Thermo Fisher Scientific) was aspirated from the 96-well plate, 200 μL of PBS was added to each well to rinse the cells and then the PBS (Thermo Fisher Scientific) was removed, and 180 μL of opti-MEM (Thermo Fisher Scientific) was added to each well of the treatment group.
(§3) Different volumes of the preparation were taken and diluted by adding the buffer used for the preparation or the buffer used for dialysis, and four dosing concentrations were prepared for each preparation, and 20 μL of the diluted nanopreparation was added to each well of a 96-well plate (3 replicate wells for each concentration), and the dosing concentrations of the preparation were about 50 ng mRNA/well, 100 ng mRNA/well, 200 ng mRNA/well, and 300 ng mRNA/well, respectively.
(§4) The 96-well cell culture plate was placed in a cell culture incubator and incubated at 37° C. 5% CO2 for 4 h. The medium was sucked up, and 200 μL of DMEM complete medium was added to each well and incubated for 20 h for detection.
(§5) D-Luciferin (Biohub International Trade Co., Ltd.) stock solution (9900 μL of complete medium+100 μL of 25 mg/mL of D-Luciferin stock solution) was diluted with DMEM complete medium at 99:1 to make a working solution at the concentration of 250 μg/mL (25 μg per well).
(§6) The 96-well cell culture plate was taken out and the supernatant was removed. Before imaging, the 96-well plate was added with 100 μL of D-Luciferin working solution, incubated at 37° C. for 5 min, and imaged and analyzed by the plate reader.

[2] = tested on: DC2.4 cells; experiment: Cytotoxicity assay (CCK-8), DC2.4; format: cell-based; settings: formulation No. 2
Procedure: as §1, §2, §3, §4
Diluted CCK-8 detection reagent (Shanghai Beyotime Biotechnology Co., Ltd.) masterbatch (900 μL complete medium+100 μL CCK-8 detection reagent) with DMEM complete medium at 9:1 to prepare CCK-8 working solution.
Take out the 96-well cell culture plate and removed the supernatant. Before detection, the 96-well plate was added with 100 μL CCK-8 working solution, incubated in the cell culture incubator at 37° C. 5% CO2 for 2 h, and analyzed by plate reader. The cell viability was calculated to reflect the cytotoxicity.

[3] = tested on: DC2.4 cells; experiment: Cell transfection assay (D-Luciferin), DC2.4; format: cell-based
Procedure: as §1, §2, §3, §4, §5, §6

[4] = Stability of LNP formulations after storage; format: physicochemical; settings: both formulations; physical stability and in vivo delivery efficiency
Procedure: Excipients and/or cryoprotectants, such as sucrose, can be added to the nucleic acid lipid nanoparticle preparation obtained in step 6 or to the nucleic acid lipid nanoparticle preparation obtained after dialysis in step 7. As an example, 40% sucrose (Aladdin Reagent (Shanghai) Co., Ltd.) was added to the nucleic acid lipid nanoparticle preparation with the volume ratio of 3:1, which is mixed homogeneously to obtain nucleic acid lipid nanoparticle preparation containing 10% sucrose, and further aliquoted into ribozyme-free centrifuge tubes and stored in an ice box, 4° C., −20° C., and/or −80° C. refrigerator for later use. Physicochemical property measurement and in vivo effect validation of the lipid nanoparticles were performed after thawing and returning to room temperature after storage for the indicated time.

[5] = Osmotic pressure by freezing point osmometer; format: physicochemical; settings: formulation No. 1, molar ratio 1.50:20:33.50:45.00
Procedure: 50 μL of the nucleic acid lipid nanoparticle solution (containing about 0.04 mg/mL mRNA) was taken and the osmotic pressure of the nanopreparation was detected by freezing point penetrometer (Gonotec GmbH, OSMOMAT 3000-D).

## CCCCCCCCCCCCOC(=O)C(O)CN(CCCN1CCN(CCCN(CC(O)C(=O)OCCCCCCCCCCCC)CC(O)C(=O)OCCCCCCCCCCCC)CC1)CC(O)C(=O)OCCCCCCCCCCCC (centres unmarked) [Compound L0191]
[1]; all tested formulations, A549 and DC2.4 cells
  transfection efficiency (in words): high
[1]; formulation No. 1 (1.50:20:33.50:45.00), 50 ng/well
  A549 transfection/RLU: 61522.00 RLU
[1]; formulation No. 1, 100 ng/well
  A549 transfection/RLU: 80557.33 RLU
[1]; formulation No. 1, 200 ng/well
  A549 transfection/RLU: 81404.33 RLU
[1]; formulation No. 1, 300 ng/well
  A549 transfection/RLU: 84806.33 RLU
[1]; formulation No. 2 (1.50:11.50:38.50:48.50), 50 ng/well
  A549 transfection/RLU: 31491.33 RLU
[1]; formulation No. 2, 100 ng/well
  A549 transfection/RLU: 54866.67 RLU
[1]; formulation No. 2, 200 ng/well
  A549 transfection/RLU: 90775.67 RLU
[1]; formulation No. 2, 300 ng/well
  A549 transfection/RLU: 88154.33 RLU
[2]; 50 ng/well
  DC2.4 cellular tox (% cells alive): 95.97%
[2]; 100 ng/well
  DC2.4 cellular tox (% cells alive): 87.33%
[2]; 200 ng/well
  DC2.4 cellular tox (% cells alive): 75.79%
[2]; 300 ng/well
  DC2.4 cellular tox (% cells alive): 92.20%
[3]; formulation No. 1, 50 ng/well
  DC2.4 cell transfection/RLU: 44580.00 RLU
[3]; formulation No. 1, 100 ng/well
  DC2.4 cell transfection/RLU: 38457.67 RLU
[3]; formulation No. 1, 200 ng/well
  DC2.4 cell transfection/RLU: 51212.00 RLU
[3]; formulation No. 1, 300 ng/well
  DC2.4 cell transfection/RLU: 49462.00 RLU
[3]; formulation No. 2, 50 ng/well
  DC2.4 cell transfection/RLU: 22385.67 RLU
[3]; formulation No. 2, 100 ng/well
  DC2.4 cell transfection/RLU: 31266.67 RLU
[3]; formulation No. 2, 200 ng/well
  DC2.4 cell transfection/RLU: 45175.33 RLU
[3]; formulation No. 2, 300 ng/well
  DC2.4 cell transfection/RLU: 66928.33 RLU
[4]
  stability after storage under different conditions: excellent stability
[5]
  osmotic pressure: 2139
